The values below come from ChEMBL document CHEMBL1141051, “Antiviral 6-amino-quinolones: molecular basis for potency and selectivity” (Bioorg Med Chem Lett, 2005).

Assay [1] deals with T1, Protein Tat (Human immunodeficiency virus type 1 group M subtype B (isolate HXB2)(HIV-1)) (UniProt P04608).
T1 sequence (whole entry): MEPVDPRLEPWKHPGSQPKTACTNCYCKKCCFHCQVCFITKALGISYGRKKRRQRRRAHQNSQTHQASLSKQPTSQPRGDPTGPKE
Kind of assay: Binding constant (K) against Tat/TAR using 1:1 quinolone/Mg2+ complex done at 25 degree C with pH 7.5. The conditions noted are these: Human immunodeficiency virus 1.

The target in assay [2] is Nucleic Acid. Kind of assay: Effective concentration required for binding to wild-type TAR using electrophoretic mobility shift assays done at 25 degree C with pH 7.5. The assay is classed as nucleic-acid assay, Human immunodeficiency virus 1.
Assay [3] addresses Nucleic Acid. Kind of assay: Effective concentration required for binding to mutant double stranded TAR using electrophoretic mobility shift assays done at 25 degree C with pH 7.5. The assay is classed as nucleic-acid assay, Human immunodeficiency virus 1. Background: A gel shift assay detects complexes by their altered migration in electrophoresis.
The target of assay [4] is Nucleic Acid. In words: Effective concentration required for binding to tRNA using electrophoretic mobility shift assays done at 25 degree C with pH 7.5. In kind it is nucleic-acid assay, Human immunodeficiency virus 1.
In assay [5] the target is Nucleic Acid. Kind of assay: Effective concentration required for binding to mutant loopless TAR using electrophoretic mobility shift assays done at 25 degree C with pH 7.5. The assay is classed as nucleic-acid assay, Human immunodeficiency virus 1.

Structures are written as SMILES. Some results are limits rather than exact numbers.

Broadly, the EC50 is the midpoint of the concentration-response curve.

In assay [1], `O=C(O)c1cn(C2CC2)c2cc(N3CCNCC3)c(F)cc2c1=O` came in with a K of 790 M⁻¹.
Take `Nc1cc2c(=O)c(C(=O)O)cn(C3CC3)c2cc1N1CCN(c2cccc(C(F)(F)F)c2)CC1`: the concentration giving a half-maximal response (EC50) amounted to 190 nM at Nucleic Acid [2], 50 nM on Nucleic Acid [3] and 130 nM on Nucleic Acid [4]. Moreover, the K in assay [1] came out at 13600 M⁻¹.
Take `Cn1cc(C(=O)O)c(=O)c2cc(N)c(N3CCN(c4ccccn4)CC3)cc21`: the EC50 was 210 nM at Nucleic Acid [2], 320 nM on Nucleic Acid [5] and more than 50000 nM at Nucleic Acid [4]. Further, the K in assay [1] is 6650 M⁻¹.
